The values that follow come from paper PMC11318023, “Discovery of VU6008677: A Structurally Distinct Tricyclic M4 Positive Allosteric Modulator with Improved CYP450 Profile” (ACS Medicinal Chemistry Letters, 2024).

Broadly, the pEC50 is the EC50 on a negative log10 scale, so that one unit is a factor of ten. By CLint scaled is commonly meant a measure of how fast metabolising enzymes remove a compound, apart from limits set by blood flow. One may read the pIC50 as the negative decadic logarithm of the IC50, by convention in mol/L.

pEC50, pIC50: −log10 of the molar value.

Series [1] concerns the target T1, human M2 (hM2) (Homo sapiens, UniProt P08172).
T1 construct: expressed in transfected cells
T1 sequence (P08172 1-466): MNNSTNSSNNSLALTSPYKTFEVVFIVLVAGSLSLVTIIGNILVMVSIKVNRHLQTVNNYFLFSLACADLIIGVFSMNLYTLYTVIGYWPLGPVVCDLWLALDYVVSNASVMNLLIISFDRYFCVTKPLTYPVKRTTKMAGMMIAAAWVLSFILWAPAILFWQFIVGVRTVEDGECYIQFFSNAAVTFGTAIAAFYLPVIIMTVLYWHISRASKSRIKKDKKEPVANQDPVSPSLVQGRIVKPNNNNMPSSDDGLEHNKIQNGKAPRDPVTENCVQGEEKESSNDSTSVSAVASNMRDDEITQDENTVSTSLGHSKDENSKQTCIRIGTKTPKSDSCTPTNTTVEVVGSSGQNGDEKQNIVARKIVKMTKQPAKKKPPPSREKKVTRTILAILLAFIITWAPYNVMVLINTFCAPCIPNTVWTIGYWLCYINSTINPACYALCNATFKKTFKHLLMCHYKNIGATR
In words: Calcium mobilization assay, hM2/Gqi5-CHO cells, with EC20 acetylcholine. The series is classed as cell-based. The text has this:
buffer remained in the cell plates. […] After establishment of a […]
On the technique in general: Calcium flux is commonly read through the fluorescence of an indicator in the cells.

A short description of series [2]: Intrinsic clearance in rat liver microsomes (substrate depletion), predicted hepatic clearance. The series is classed as in vitro ADME. As to conditions: for CLint scaled at 1 µM: pH 7.4, rat liver microsomes; for CLhep, rat (predicted hepatic clearance): predicted from rat microsomal CLint.
Series [3] in a line: Intrinsic clearance in human liver microsomes (substrate depletion), predicted hepatic clearance. The series is classed as in vitro ADME. As to conditions: for CLint scaled at 1 µM: pH 7.4, human liver microsomes; for CLhep, human (predicted hepatic clearance): predicted from human microsomal CLint.
Series [4] in a line: Binding in plasma from rat, equilibrium dialysis. Type of series: in vitro ADME. As to conditions: read-out: rat fu,plasma.
Series [5] can be described thus: Binding in plasma from human, equilibrium dialysis. The series is classed as in vitro ADME. As to conditions: human, plasma, read-out: human fu,plasma. Background: In equilibrium dialysis free small molecules cross a membrane that holds back macromolecules.
Series [6] is described as follows: Binding in brain homogenate from rat, equilibrium dialysis. The series is classed as in vitro ADME. As to conditions: rat brain homogenates; for fraction unbound at 6 h, 1 µM: rat, brain homogenate, read-out: rat fu,brain.
The target of series [7] is T2, CYP 1A2 (Homo sapiens, UniProt P05177).
T2 sequence (P05177 1-516): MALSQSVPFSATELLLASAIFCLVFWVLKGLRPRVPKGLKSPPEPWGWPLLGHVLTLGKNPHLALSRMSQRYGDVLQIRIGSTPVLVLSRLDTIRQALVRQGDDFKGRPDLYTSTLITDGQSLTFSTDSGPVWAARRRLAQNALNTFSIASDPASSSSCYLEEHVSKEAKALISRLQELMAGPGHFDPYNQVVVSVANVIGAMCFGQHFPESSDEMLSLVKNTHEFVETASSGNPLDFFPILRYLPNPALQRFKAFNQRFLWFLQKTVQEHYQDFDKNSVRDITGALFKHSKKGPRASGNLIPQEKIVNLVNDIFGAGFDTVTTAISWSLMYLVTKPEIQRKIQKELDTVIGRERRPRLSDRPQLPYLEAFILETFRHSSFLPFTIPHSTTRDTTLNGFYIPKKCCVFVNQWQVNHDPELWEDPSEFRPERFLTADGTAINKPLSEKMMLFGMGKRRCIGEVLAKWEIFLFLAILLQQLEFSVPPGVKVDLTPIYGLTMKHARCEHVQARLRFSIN
As to the kind of experiment: CYP450 inhibition in pooled human liver microsomes, CYP-specific probe substrates. The series is classed as in vitro ADME. As to conditions: pooled HLM, NADPH, CYP-specific probe substrate. For orientation: Liver microsomes are a subcellular fraction often used to study metabolism.

Series [8] has as its target CYP 2C9 (Homo sapiens, UniProt P11712). The series is described as above. The series is classed as in vitro ADME. As to conditions: pooled HLM, NADPH, CYP-specific probe substrate.
Series [9] deals with CYP 2D6 (Homo sapiens, UniProt P10635). The description is as above. Type of series: in vitro ADME. The note with it: pooled HLM, NADPH, CYP-specific probe substrate.
Sequence of CYP 2D6 (P10635 whole entry): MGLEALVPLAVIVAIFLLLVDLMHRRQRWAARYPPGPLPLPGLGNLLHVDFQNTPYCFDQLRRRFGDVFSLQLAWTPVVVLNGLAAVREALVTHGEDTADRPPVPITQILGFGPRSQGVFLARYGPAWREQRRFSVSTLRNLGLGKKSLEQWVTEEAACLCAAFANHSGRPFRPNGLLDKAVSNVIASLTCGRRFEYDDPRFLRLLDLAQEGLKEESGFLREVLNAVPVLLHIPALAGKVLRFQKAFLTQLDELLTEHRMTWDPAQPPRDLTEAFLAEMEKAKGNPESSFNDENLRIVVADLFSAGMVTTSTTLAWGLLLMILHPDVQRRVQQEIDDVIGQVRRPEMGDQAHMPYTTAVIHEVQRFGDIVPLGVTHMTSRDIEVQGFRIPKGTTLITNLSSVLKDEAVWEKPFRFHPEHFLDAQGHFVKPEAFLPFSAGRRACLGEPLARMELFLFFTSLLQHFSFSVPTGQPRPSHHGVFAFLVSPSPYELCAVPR
Series [10] addresses CYP 3A4 (Homo sapiens, UniProt P08684). The description is as above. Type of series: in vitro ADME. As to conditions: pooled HLM, NADPH, CYP-specific probe substrate.
Series [11] concerns the target T3, human M4 (hM4) (Homo sapiens, UniProt P08173).
T3 sequence (P08173 1-479): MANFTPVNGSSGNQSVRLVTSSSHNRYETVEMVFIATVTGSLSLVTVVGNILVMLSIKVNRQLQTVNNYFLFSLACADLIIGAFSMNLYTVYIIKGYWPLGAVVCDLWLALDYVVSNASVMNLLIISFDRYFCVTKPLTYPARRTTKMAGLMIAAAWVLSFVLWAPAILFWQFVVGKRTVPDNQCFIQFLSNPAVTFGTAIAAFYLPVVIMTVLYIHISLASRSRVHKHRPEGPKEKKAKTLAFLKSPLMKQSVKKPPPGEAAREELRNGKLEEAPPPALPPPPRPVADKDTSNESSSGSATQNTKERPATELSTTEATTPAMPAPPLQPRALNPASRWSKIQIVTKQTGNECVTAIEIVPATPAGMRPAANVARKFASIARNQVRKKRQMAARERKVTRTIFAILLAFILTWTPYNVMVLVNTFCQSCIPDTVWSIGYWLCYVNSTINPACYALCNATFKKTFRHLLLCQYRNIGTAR
In words: Calcium mobilization assay, hM4/Gqi5-CHO cells, with EC20 acetylcholine (PAM). As to conditions: hM4/Gqi5-CHO cells, calcium mobilization.

Sequence of CYP 3A4 (P08684 whole entry): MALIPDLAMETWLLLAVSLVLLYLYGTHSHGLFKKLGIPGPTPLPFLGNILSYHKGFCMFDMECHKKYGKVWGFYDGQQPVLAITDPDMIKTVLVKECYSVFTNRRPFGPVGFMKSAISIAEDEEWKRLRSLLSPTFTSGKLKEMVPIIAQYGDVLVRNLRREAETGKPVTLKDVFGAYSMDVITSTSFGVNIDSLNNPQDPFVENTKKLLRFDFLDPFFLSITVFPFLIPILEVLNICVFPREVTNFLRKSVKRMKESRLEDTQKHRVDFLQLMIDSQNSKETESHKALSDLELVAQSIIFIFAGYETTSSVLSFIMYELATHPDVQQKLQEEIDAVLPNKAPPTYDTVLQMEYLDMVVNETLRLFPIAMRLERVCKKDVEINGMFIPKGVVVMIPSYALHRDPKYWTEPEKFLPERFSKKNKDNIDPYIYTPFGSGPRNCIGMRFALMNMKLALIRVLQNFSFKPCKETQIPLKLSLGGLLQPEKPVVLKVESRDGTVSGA
Sequence of CYP 2C9 (P11712 whole entry): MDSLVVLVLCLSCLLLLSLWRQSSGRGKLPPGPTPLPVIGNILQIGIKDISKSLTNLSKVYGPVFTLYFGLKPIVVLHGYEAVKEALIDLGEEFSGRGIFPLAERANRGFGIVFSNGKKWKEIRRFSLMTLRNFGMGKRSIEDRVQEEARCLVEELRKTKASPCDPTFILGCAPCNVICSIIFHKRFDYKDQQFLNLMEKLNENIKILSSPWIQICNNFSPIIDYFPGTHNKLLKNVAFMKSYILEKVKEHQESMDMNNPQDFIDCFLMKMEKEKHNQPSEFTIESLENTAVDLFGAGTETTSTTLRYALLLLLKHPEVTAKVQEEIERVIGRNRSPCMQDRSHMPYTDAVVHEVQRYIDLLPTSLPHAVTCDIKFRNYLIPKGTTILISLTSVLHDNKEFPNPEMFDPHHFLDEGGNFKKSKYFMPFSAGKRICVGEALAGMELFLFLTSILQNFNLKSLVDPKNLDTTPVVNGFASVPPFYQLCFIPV

For `Cc1nc2oc3c(NC4CC4(C)C)ncnc3c2c(C)c1Cl.Cl` (stereo not drawn) [Compound 14p], the pEC50 in series [1] is 5.64. Also, the “hM2 % ACh Max” value in [1] was found to be 39%. Also, the CLint scaled at 1 µM was 467 mL/min/kg in series [2] and 168 mL/min/kg in series [3]. Further, the “CLhep, rat (predicted hepatic clearance)” value in series [2] is 61 mL/min/kg. Moreover, the “CLhep, human (predicted hepatic clearance)” value in series [3] is reported as 19 mL/min/kg. Moreover, the fraction unbound at 6 h, 5 µM in series [4] was determined as 0.038; in [5], 0.004. Also, the fraction unbound at 6 h, 1 µM in series [6] amounted to 0.002. Also, the pIC50 in series [7] was 6.49; in series [8], less than 4.52; in series [9] it was less than 4.52; in series [10], less than 4.52.

Consider `Cc1nc2sc3c(NC4CCC4)nncc3c2c(C)c1Cl.Cl` [Compound 22j], for which the pEC50 in series [1] was less than 5.00. In addition, the “hM2 % ACh Max” value in series [1] worked out at 44%. The CLint scaled at 1 µM in [2] is 1280 mL/min/kg; in series [3], 49 mL/min/kg. The “CLhep, rat (predicted hepatic clearance)” value in [2] was 66 mL/min/kg. Besides, in [3], the “CLhep, human (predicted hepatic clearance)” value is given as 15 mL/min/kg. Moreover, the results for the fraction unbound at 6 h, 5 µM in series [4] and in series [5] were 0.026 and 0.005, respectively. The fraction unbound at 6 h, 1 µM in series [6] came out at 0.006. The pIC50 in [7] is 6.28; in series [8], less than 4.52; in series [9] it was 4.72; in series [10], less than 4.52.

As to `Cc1nc2sc3c(NC4CC(F)(F)C4)nncc3c2c(C)c1Cl.Cl` [Compound 22k], the pEC50 in series [1] is 6.59. The “hM2 % ACh Max” value in [1] turned out to be 49%. The CLint scaled at 1 µM in series [2] was 1670 mL/min/kg; in [3] it was 185 mL/min/kg. For the same compound, the “CLhep, rat (predicted hepatic clearance)” value in series [2] is 67 mL/min/kg. Besides, in series [3], the “CLhep, human (predicted hepatic clearance)” value is given as 19 mL/min/kg. Also, the results for the fraction unbound at 6 h, 5 µM in series [4] and in [5] were 0.057 and 0.01, respectively. The fraction unbound at 6 h, 1 µM in series [6] amounted to 0.008. In addition, the negative-log IC50 (pIC50) was 6.01 in series [7], less than 4.52 in series [8], 4.60 in series [9] and less than 4.52 in series [10].

On to `Cc1nc2sc3c(NC4CC4)ncnc3c2c(C)c1Cl.Cl` [Compound 13l], for which, in [1], the pEC50 was 5.30. Besides, the “hM2 % ACh Max” value in [1] is listed as 49%. Besides, the intrinsic metabolic clearance (CLint scaled) at 1 µM in series [2] was 423 mL/min/kg; in series [3], 78 mL/min/kg. Moreover, in series [2], the “CLhep, rat (predicted hepatic clearance)” value is 60 mL/min/kg. For the same compound, the “CLhep, human (predicted hepatic clearance)” value in [3] is listed as 17 mL/min/kg. The fraction unbound at 6 h, 5 µM in series [4] is not above 0.01. Further, the “rat fu,brain” value in series [6] (fraction unbound) is 0.001. Besides, the fraction unbound at 6 h, 1 µM in series [6] lay in the range of 0.001 to 0.005. For the same compound, the pIC50 in series [7] is more than 7.00; in series [8], less than 4.80; in series [9], less than 4.52; in series [10], 4.80.

Take `Cc1c(Cl)cnc2sc3c(NC4CC(c5ccncc5)C4)ncnc3c12` (stereo not drawn) [Compound 15e]: in series [1], the “hM2 EC50” value was “inactive”. Besides, the CLint scaled at 1 µM was 316 mL/min/kg in series [2] and 79 mL/min/kg in series [3]. For the same compound, the “CLhep, rat (predicted hepatic clearance)” value in [2] is reported as 57 mL/min/kg. Moreover, the “CLhep, human (predicted hepatic clearance)” value in series [3] is given as 17 mL/min/kg. Further, the fraction unbound at 6 h, 5 µM in series [4] and in series [5] was not above 0.01 each time. For the same compound, the pIC50 in series [7] was 5.82; in series [8] it was 5.04; in series [9] it was 6.48; in series [10] it was less than 4.52. In addition, the “hM4 pEC50” value in series [11] (EC20 acetylcholine) amounted to 7.09. Besides, in series [11] (EC20 acetylcholine, maximum response), the “hM4 %ACh Max” value came out at 65%. The pEC50 in [11] (read-out: hM4 EC50, EC20 fixed concentration of acetylcholine) is 7.09.
